Values belong to the molecule of their own block, whether it stands above or below them.
Tests used:
[1] = Adhesion strength of fibrin clots between strips of aortic tissue (Instron); details: 15 mg/mL fibrinogen concentrate, calcium chloride 1.8 to 100 mM tested
Experimental: The adhesive strength of fibrin clots is tested. The adhesion strength of the fibrin glue is assessed by sandwiching the fibrin glue between two strips of aortic tissue and then pulling them apart, simulating the performance of the sealant bonding to tissue. Bovine aorta is prepared by slitting the aorta lengthwise and laying it flat. The aorta is then cut into smaller strips, each approximately 3 cm long and 1 cm wide. […] Sealant is applied (0.1 mL), covering an area of approximately 1 cm^2, to the exposed media as shown. An overlapping joint is formed (approximately one-third the length of each strip) and allowed to “cure” while held in place with a 100 g weight for 30 minutes at 22° C. The non-overlapping ends of the cured samples are clamped in an Instron Model 1120 Universal Testing Instrument (max load 500 g), and a stress-strain curve is recorded while the sample is strained at 100 mm/min until the overlapping (glued) joint failed. Adhesion strength is taken as the maximum stress sustained divided by the joint area (indicated by the glue still visible after the joint failed and measured with a digital caliper).
The effect of cure time on tensile strength and adhesion strength is evaluated by allowing the molded clots and the glued aortic strips (described in Example 9) to cure for 1, 5, 10, 15, 30, and 60 minutes at 22° C. […]

[2] = Tensile strength of fibrin clots (dog-bone mold, Instron); details: 15 mg/mL fibrinogen concentrate, calcium chloride 1.8 to 100 mM tested
Experimental: The tensile strength of fibrin clots is tested. […] The narrow neck provided the weakest point where the clot would break; the force at which the clot breaks serves as an indication of its tensile strength.
Test samples are prepared by simultaneously emptying syringes of fibrinogen and thrombin into a common duct where the mixture entered the mold through the sponge on one end and exited through the sponge on the other end. […] After the sample is given time to “cure,” (30 minutes unless various cure times were being tested), the plexiglass mold is dissembled, and the clot is transferred to an Instron Model 1120 Universal Testing Instrument (Instron Corp., Norwood, Mass., max load 500 g) where it is held on the ends via the sponge “grips”. A stress-strain curve is recorded while the sample is strained at 100 mm/min until it ruptured. The tensile strength is recorded as the maximum stress sustained.
Samples are prepared from a 15 mg/mL pure fibrinogen concentrate (as prepared in Example 4) as follows:
The effect of cure time on tensile strength and adhesion strength is evaluated by allowing the molded clots and the glued aortic strips (described in Example 9) to cure for 1, 5, 10, 15, 30, and 60 minutes at 22° C.
Controls of pooled human plasma (fibrinogen concentration ˜3 mg/mL), pure fibrinogen (15 mg/mL), and Tisseel (average fibrinogen concentration ˜95 mg/mL) are used. […]

[3] = Clottability of precipitated fibrinogen with bovine thrombin (ELISA of clot supernatant, by difference); assay type: biochemical, human; details: blood collected into heparin 2 U/mL
Experimental: The clottability of the recovered fibrinogen is evaluated as follows. A fibrinogen solution as prepared in Example 3 is prepared and used. To 1 mL of the fibrinogen solution 100 μL of bovine thrombin (Vital Products, Inc, Boynton Beach, Fla., 500 Units/mL) is added and the clot is allowed to stand for 30 minutes at 22° C. The clot is then centrifuged for 2 min at 3500 g and the supernatant removed. The amounts of fibrinogen present in the concentrated composition and in the clot supernatant are determined by ELISA, and the fibrinogen present in the clot is determined by difference. […] The amounts of fibrinogen and Factor XIII in the clot supernatant and in the concentrate can be measured with ELISA, and the amounts of fibrinogen and Factor XIII remaining in the clot can be determined by difference.

[4] = target: T1, fibrinogen (Homo sapiens, UniProt P02671+P02675+P02679); test: Fibrinogen precipitation from plasma by protamine (recovery in the concentrate, ELISA / Clauss method); details: n=4
T1 construct: Fibrinogen is precipitated from pooled human plasma by addition of protamine sulfate; from tissue; host or cells: human blood plasma (pooled human plasma / platelet-poor plasma of healthy adult donors)
T1 sequence (P02671 20-629 limits assumed): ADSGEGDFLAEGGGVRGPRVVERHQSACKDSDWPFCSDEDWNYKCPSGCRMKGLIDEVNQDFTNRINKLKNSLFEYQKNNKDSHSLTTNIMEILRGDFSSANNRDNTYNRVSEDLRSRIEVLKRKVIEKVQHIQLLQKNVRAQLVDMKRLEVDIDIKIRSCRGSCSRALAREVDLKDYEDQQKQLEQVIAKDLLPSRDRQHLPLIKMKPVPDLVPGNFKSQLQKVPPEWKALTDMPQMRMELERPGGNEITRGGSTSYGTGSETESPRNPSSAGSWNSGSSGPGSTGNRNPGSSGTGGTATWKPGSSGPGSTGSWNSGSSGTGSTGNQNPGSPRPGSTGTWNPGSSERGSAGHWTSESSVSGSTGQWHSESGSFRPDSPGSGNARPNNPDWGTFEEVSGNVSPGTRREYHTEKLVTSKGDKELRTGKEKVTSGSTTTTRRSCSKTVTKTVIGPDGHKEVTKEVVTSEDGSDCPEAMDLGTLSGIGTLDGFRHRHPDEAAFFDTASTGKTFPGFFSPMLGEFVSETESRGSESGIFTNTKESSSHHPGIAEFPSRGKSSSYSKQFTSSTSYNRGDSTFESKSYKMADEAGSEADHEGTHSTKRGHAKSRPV
T1 sequence (P02675 31-491): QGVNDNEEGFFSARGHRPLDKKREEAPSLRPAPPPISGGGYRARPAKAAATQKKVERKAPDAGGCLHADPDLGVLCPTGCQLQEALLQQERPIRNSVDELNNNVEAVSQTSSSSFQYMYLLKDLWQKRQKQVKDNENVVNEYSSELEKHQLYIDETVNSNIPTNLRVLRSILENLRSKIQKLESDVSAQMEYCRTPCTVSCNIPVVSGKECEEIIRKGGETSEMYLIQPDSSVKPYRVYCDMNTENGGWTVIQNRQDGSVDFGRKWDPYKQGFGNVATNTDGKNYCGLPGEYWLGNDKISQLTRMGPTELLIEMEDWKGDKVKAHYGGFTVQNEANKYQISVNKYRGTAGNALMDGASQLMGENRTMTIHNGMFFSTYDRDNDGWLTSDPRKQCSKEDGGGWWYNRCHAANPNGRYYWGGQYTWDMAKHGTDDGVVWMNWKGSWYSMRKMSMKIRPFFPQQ
T1 sequence (P02679 27-453): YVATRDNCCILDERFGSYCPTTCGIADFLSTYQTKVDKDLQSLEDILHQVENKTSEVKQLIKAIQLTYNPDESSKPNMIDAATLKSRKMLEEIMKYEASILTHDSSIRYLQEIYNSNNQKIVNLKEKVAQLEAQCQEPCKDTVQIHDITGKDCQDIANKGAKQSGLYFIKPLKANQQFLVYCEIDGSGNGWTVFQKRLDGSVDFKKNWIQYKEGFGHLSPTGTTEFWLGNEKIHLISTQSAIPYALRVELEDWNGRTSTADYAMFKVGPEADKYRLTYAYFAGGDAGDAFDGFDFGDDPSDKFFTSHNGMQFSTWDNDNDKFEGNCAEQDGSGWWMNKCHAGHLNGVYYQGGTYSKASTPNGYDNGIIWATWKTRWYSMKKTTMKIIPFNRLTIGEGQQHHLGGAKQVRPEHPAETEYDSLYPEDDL
Experimental: Fibrinogen is precipitated from pooled human plasma by addition of protamine sulfate (Sigma Chemical Co.). The protamine sulfate is used to prepare a stock solution of 40 mg/mL. The protamine is then added to the plasma (final concentration=10 mg/mL), mixed, and then centrifuged at 1000 g for 5 min to sediment the precipitate. The plasma is then decanted, and the remaining precipitate is dissolved in 0.2 M sodium citrate (37° C., pH 7.4).
A concentrated fibrinogen solution is prepared as in Example 3. The fibrinogen and Factor XIII concentrations are evaluated with an enzyme-linked immunosorbent assay (ELISA; AssayPro LLC, Brooklyn, N.Y.). The color intensity of the developed ELISA plates is measured with a Dynex MRX microplate reader (Dynex Technologies, Chantilly, Va.) and compared to a standard curve.
The fibrinogen concentration in the plasma is measured with the Clauss method, where plasma samples are clotted in the presence of excess thrombin in a CoaData 2000 Fibrintimer (Labor GmbH, Hamburg, Germany). The clotting times are recorded, and the fibrinogen concentration is calculated from a standard curve. […]
Heparin is used clinically in most procedures requiring anticoagulation. Heparin is evaluated for its effect on fibrinogen and Factor XIII harvesting and subsequent clotting of harvested fibrinogen. […]

Molecule: [Ca+2].[Cl-].[Cl-] [calcium chloride]
calcium concentration giving maximum adhesion strength [1]: 3.6 to 100 mM | calcium concentration giving maximum tensile strength [2]: 8.9 to 50 mM

Molecule: heparin
change in clottability of fibrinogen when heparin is present [3]: no observed changes

fibrinogen in the plasma precipitated (maximum yield) ([4]; blood collected into heparin 2 U/mL, protamine 11 mg/mL in plasma): 95±1% | fibrinogen precipitated and recovered (percentage of fibrinogen in the original plasma) ([4]; blood or plasma protamine concentration of 10 mg/mL): 96±4%
Molecule: protamine sulfate

Reference: patent US20100086529A1, “METHODS OF MAKING CONCENTRATED FIBRINOGEN- AND PLATELET-CONTAINING COMPOSITIONS” (priority 2008, published 2010)
